In test [1] the target is T1, AMPK α1β1γ1 (Homo sapiens, UniProt P54619+Q13131).
T1 construct: made in house; host or cells: Sf9 insect cells (baculovirus)
The test is described as follows: TR-FRET activity assay (LanthaScreen, fluorescein-CREBtide). The test is classed as biochemical. The settings on record: ATP 50 µM, substrate 400 nM, read-out: Activator EC50. For orientation: In TR-FRET formats the signal depends on donor and acceptor labels being close together.

For test [2], the system named is partially purified rat AMPK. Set-up: method as in PMID 8185610. The note with it: cited from earlier work.
Test [3] addresses T1, AMPK α1β1γ1. Description: Radiometric kinase assay (SAMS peptide, 32P-ATP). The note with it: ATP 35 µM, SAMS 200 µM. The test is classed as biochemical.
Test [4] addresses T1, AMPK α1β1γ1. Description: CHEF-based activity assay (Omnia S/T23 peptide). It counts as biochemical. The note with it: ATP 40 µM, substrate 8 µM, 30°C. The protocol: Kinase reactions were performed in a 50 µL reaction volume at 30°C in 96-well half-area plate (Corning Model 3992) using the same assay buffer as the radiometric assays. Inhibitors and activators were prepared as described for the radiometric assays. Assays were performed by mixing 10 µL enzyme solution, 10 µL of substrate peptide solution, 10 µL of AMP solution (or H2O for the activator experiments), and 10 µL of inhibitor or activator solution. The reactions were initiated by adding 10 µL of ATP solution. The final concentration of Omnia™ S/T23 peptide substrate in the reaction was 8 µM. AMPK α1β1γ1 was used at 320 ng/mL (1.7 nM), at an ATP concentration of 40 µM. AMPK α2β1γ1 was used at 640 ng/mL (3.4 nM), at an ATP concentration of 120 µM. The concentration of AMP in the inhibitor titrations was 80 µM. Immediately after addition of ATP the assay plate was placed into a fluorescence plate reader (Molecular Devices SpectraMax M5, pre-warmed to 30°C). The plates were read for 60 minutes using an excitation wavelength of 360 nm and emission wavelength of 485 nm. The reaction rates were calculated as the change in fluorescence intensity over time (Rfu/sec) over the period where the assay response was linear.
Data analysis and curve-fitting was performed using GraphPad Prism software (GraphPad Software, Inc, San Diego CA).

Data on one molecule can be found in paper PMC2774621, “Homogenous Fluorescent Assays for Characterizing Small-Molecule Activators of AMP-Activated Protein Kinase (AMPK)” (Current Chemical Genomics, 2008).

T1 sequence (Q13131 whole entry): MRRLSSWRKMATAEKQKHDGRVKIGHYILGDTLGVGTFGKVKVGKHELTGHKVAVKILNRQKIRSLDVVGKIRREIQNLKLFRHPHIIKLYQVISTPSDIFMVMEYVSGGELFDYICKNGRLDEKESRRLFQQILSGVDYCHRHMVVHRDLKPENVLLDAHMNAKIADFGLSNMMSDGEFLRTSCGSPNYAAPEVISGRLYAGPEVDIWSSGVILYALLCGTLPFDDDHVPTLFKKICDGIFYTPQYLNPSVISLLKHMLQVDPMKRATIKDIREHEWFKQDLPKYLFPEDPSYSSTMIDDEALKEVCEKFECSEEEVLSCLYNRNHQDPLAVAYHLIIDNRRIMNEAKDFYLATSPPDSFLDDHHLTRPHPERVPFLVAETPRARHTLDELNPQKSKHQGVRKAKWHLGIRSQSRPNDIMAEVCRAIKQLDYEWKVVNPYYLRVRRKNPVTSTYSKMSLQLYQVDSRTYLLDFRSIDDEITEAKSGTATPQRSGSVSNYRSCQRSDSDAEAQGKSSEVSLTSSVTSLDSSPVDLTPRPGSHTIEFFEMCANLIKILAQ
T1 sequence (Q9Y478 whole entry partner): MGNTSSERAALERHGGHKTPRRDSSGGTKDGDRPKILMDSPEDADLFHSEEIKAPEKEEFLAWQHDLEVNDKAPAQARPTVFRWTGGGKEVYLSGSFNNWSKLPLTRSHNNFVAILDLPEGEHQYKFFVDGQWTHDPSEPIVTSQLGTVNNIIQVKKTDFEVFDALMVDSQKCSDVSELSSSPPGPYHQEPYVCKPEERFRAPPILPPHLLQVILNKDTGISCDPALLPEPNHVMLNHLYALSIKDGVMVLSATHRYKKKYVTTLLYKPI
T1 sequence (P54619 whole entry): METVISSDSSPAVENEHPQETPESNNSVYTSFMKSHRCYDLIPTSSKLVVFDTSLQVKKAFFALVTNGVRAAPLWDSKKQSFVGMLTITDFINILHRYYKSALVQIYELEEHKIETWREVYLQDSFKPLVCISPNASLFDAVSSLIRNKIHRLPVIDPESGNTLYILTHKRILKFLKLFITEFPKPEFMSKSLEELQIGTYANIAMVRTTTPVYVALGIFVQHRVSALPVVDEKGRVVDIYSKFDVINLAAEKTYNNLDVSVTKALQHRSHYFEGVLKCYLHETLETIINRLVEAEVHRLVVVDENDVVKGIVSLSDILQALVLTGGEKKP

In the case of `Nc1ncnc2c1ncn2[C@@H]1O[C@H](COP(O)(O)=S)[C@@H](O)[C@H]1O` [ATMP, adenosine 5′-O-thiomonophosphate], the EC50 on AMPK α1β1γ1 [1] is 250 nM; in test [2] (rat AMPK, read-out: half-maximal stimulatory concentration), 650 nM; on AMPK α1β1γ1 [3] (read-out: Activator EC50), 700 nM; on AMPK α1β1γ1 [4] (read-out: Activator EC50), 250 nM. For the same molecule, in test [2] (partially purified rat AMPK), the “fold stimulation (maximal extent of activation)” value is given as 3 fold. In addition, in test [2] (rat AMPK), the “concentration above which activity is inhibited” value was “above 25 µM”. Further, the figures for the Max. fold-activation on AMPK α1β1γ1 [3] and on AMPK α1β1γ1 [4] were 1.7 fold and 1.8 fold, respectively.
